From the supplement of paper PMC10733146

How the values were obtained:
Experiment in all cases: viability relative to DMSO control (fraction); higher = less drug effect (more viable cells)
Settings in all cases: 48 h
[1] = tested on: primary AML patient cells (S006)
In short: (§1)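 Cells were incubated for 48 h at 37 °C and 5% CO2 in RPMI-1640 with penicillin/streptomycin, L-glutamine and human serum, at 4 × 10^4 cells per well in 384-well plates with compounds pre-plated at five concentrations, one well each. These were primary mononuclear tumour cells, fresh or cryopreserved, Ficoll-isolated from blood or bone marrow or obtained from processed lymph node. Viability values are CellTiter-Glo luminescence relative to the median of 16 inner DMSO wells.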

[2] = tested on: primary AML patient cells (S011)
In short: as §1

[3] = tested on: primary AML patient cells (S012)
In short: as §1

[4] = tested on: primary AML patient cells (S037)
In short: as §1

[5] = tested on: primary AML patient cells (S056)
In short: as §1

[6] = tested on: primary AML patient cells (S081)
In short: as §1

[7] = tested on: primary AML patient cells (S085)
In short: as §1

[8] = tested on: primary BL patient cells (S005)
In short: as §1

[9] = tested on: primary CLL patient cells (S031)
In short: as §1

[10] = tested on: primary CLL patient cells (S043)
In short: as §1

[11] = tested on: primary MCL patient cells (S041)
In short: as §1

[12] = tested on: primary MCL patient cells (S063)
In short: as §1

[13] = tested on: primary MCL patient cells (S068)
In short: as §1

[14] = tested on: primary T-PLL patient cells (S008)
In short: as §1

Structure (SMILES): Nc1ncn([C@H]2C[C@H](O)[C@@H](CO)O2)c(=O)n1 [Decitabine (Dacogen)]
- viability ([1]; 0.024 µM): 0.971
- viability ([1]; 0.12 µM): 0.877
- viability ([1]; 0.6 µM): 1
- viability ([1]; 3 µM): 0.747
- viability ([1]; 15 µM): 0.716
- viability ([2]; 0.024 µM): 0.963
- viability ([2]; 0.12 µM): 0.887
- viability ([2]; 0.6 µM): 1.1
- viability ([2]; 3 µM): 0.887
- viability ([2]; 15 µM): 0.956
- viability ([3]; 0.024 µM): 1
- viability ([3]; 0.12 µM): 0.92
- viability ([3]; 0.6 µM): 0.943
- viability ([3]; 3 µM): 0.945
- viability ([3]; 15 µM): 0.929
- viability ([4]; 0.024 µM): 1.01
- viability ([4]; 0.12 µM): 0.925
- viability ([4]; 0.6 µM): 0.981
- viability ([4]; 3 µM): 0.91
- viability ([4]; 15 µM): 0.955
- viability ([5]; 0.024 µM): 0.971
- viability ([5]; 0.12 µM): 0.876
- viability ([5]; 0.6 µM): 0.912
- viability ([5]; 3 µM): 0.8
- viability ([5]; 15 µM): 0.766
- viability ([6]; 0.024 µM): 1.05
- viability ([6]; 0.12 µM): 0.898
- viability ([6]; 0.6 µM): 1.05
- viability ([6]; 3 µM): 0.912
- viability ([6]; 15 µM): 0.931
- viability ([7]; 0.024 µM): 0.939
- viability ([7]; 0.12 µM): 0.904
- viability ([7]; 0.6 µM): 0.909
- viability ([7]; 3 µM): 0.807
- viability ([7]; 15 µM): 0.687
- viability ([8]; 0.024 µM): 0.833
- viability ([8]; 0.12 µM): 1.27
- viability ([8]; 0.6 µM): 0.828
- viability ([8]; 3 µM): 1.27
- viability ([8]; 15 µM): 0.8
- viability ([9]; 0.024 µM): 1.02
- viability ([9]; 0.12 µM): 0.916
- viability ([9]; 0.6 µM): 1.04
- viability ([9]; 3 µM): 0.869
- viability ([9]; 15 µM): 0.965
- viability ([10]; 0.024 µM): 0.965
- viability ([10]; 0.12 µM): 0.976
- viability ([10]; 0.6 µM): 0.975
- viability ([10]; 3 µM): 0.959
- viability ([10]; 15 µM): 0.899
- viability ([11]; 0.024 µM): 1.06
- viability ([11]; 0.12 µM): 0.969
- viability ([11]; 0.6 µM): 1.06
- viability ([11]; 3 µM): 0.961
- viability ([11]; 15 µM): 0.984
- viability ([12]; 0.024 µM): 1.03
- viability ([12]; 0.12 µM): 0.985
- viability ([12]; 0.6 µM): 1.03
- viability ([12]; 3 µM): 0.974
- viability ([12]; 15 µM): 0.977
- viability ([13]; 0.024 µM): 0.948
- viability ([13]; 0.12 µM): 0.974
- viability ([13]; 0.6 µM): 0.926
- viability ([13]; 3 µM): 0.938
- viability ([13]; 15 µM): 0.775
- viability ([14]; 0.024 µM): 0.968
- viability ([14]; 0.12 µM): 1.02
- viability ([14]; 0.6 µM): 0.953
- viability ([14]; 3 µM): 1.08
- viability ([14]; 15 µM): 1.01
